These results are taken from patent publication EP1370663B1, “MICROBIOLOGICAL METHOD FOR PRODUCING L-CARNITINE” (priority 2001, dated 2002).

For series [1], the system named is Hydrolasen im Zellextrakt des Stammes HK1349 (DSM 3944). Nature of the series: Hydrolase activity of HK1349 supernatant after cell disruption and treatment with detergents (4-nitrophenyl acetate assay). Type of series: biochemical, Agrobacterium/Rhizobium HK1349 (DSM 3944). To be noted: supernatant after cell disruption and treatment with 5% (v/v) detergent, 30 min, 25°C; 100% = 0,30 U/mg Protein. As for the experimental part: Die Bestimmung der Hydrolase-Aktivität erfolgte photometrisch mittels Essigsäue-4-nitrophenylester-Assay. Hierzu wurde die Proteinlösung (900 µL) mit einer Lösung von Essigsäure-4-nitrophenylester (10 mM in Dimethylsulfoxid; 100 µL) bei 25°C versetzt. Die Absorption des während der Hydrolyse gebildeten 4-Nitrophenols (e = 15 × 10^3 × M^-1 cm^-1) wurde bei 410 nm gemessen. 1 Unit (U) entspricht der Menge 4-Nitrophenol (in µmol), die pro Minute freigesetzt wird. Die Bestimmung des Proteingehaltes der eingesetzten Proteinlösung erfolgte mit dem BCA (Bicin choninic acid) Protein Assay kit (Pierce) nach Anleitung des Herstellers. Die spezifische Hydrolase-Aktivität wird angegeben in U/mg Protein und entspricht der Menge 4-Nitrophenol (in µmol), die pro Minute und mg Protein freigesetzt wird.
Die gemäss Beispiel 4.1. erhaltene Zellsuspension (HK1349 (DSM 3944), OD650 nm 37, 50 mM Natriumphosphat-Puffer, pH 7,5) wurde durch 10 minütige Behandlung mit Ultraschall unter Eisbadkühlung aufgeschlossen, mit verschiedenen Detergentien (5% (v/v) Detergenz; 30 min; 25°C) inkubiert und die Zelltrümmer wurden abzentrifugiert (4 000 upm; 10 min; 4°C). Die spezifische Hydrolase-Aktivität der Überstände wurde mittels Essigsäure-4-nitrophenylester-Assay bestimmt. Die höchste spezifische Hydrolase-Aktivität (0,30 U/mg Protein) wurde als 100%-Wert betrachtet. Die Ergebnisse sind in Tabelle 4 zusammengestellt. Die höchste spezifische Hydrolase-Aktivität wurde unter Verwendung von Triton X-114 beobachtet.

The test system is the same in series [2]. Nature of the series: Substrate specificity of the hydrolases of HK1349 (pH-stat titration). Type of series: biochemical, Agrobacterium/Rhizobium HK1349 (DSM 3944). To be noted: 5% (v/v) ester emulsion, 37°C; for Spezifische Hydrolase-Aktivität [U/mg Protein]: lyophilised Triton X-114 supernatant of HK1349; for Relative spezifische Hydrolase-Aktivität [%]: 100% = 0,039 U/mg Protein. As for the experimental part: Die gemäss Beispiel 4.1. erhaltene Zellsuspension (HK1349 (DSM 3944), OD650 nm 37, 50 mM Natriumphosphat-Puffer, pH 7,5) wurde durch 10 minütige Behandlung mit Ultraschall unter Eisbadkühlung aufgeschlossen, mit Triton X-114 (5% (v/v); 30 min; 25°C) inkubiert und dann zentrifugiert (4 000 upm; 10 min; 4°C). Der Überstand wurde lyophilisiert. Der lyophilisierte Überstand (100 mg) wurde in Natriumphosphatpuffer (50 mM; pH 7,5; 1,0 mL) gelöst und zu Emulsionen von Essigsäure-ethylester, Buttersäure-ethylester und Buttersäure-methylester (5% (v/v) Ester emulgiert mittels eines Ultraturrax in destilliertem Wasser enthaltend 2% (w/v) Gummi arabicum; 20 mL) bei 37°C gegeben. Die bei der Hydrolyse des Esters freigesetzte Säure wird mit NaOH (0,01 M) unter Verwendung eines pH-Stats titriert. 1 U (Unit) entspricht der Menge an Säure (in µmol), die pro Minute freigesetzt wird. Die höchste spezifische Hydrolase-Aktivität (0,039 U/mg Protein) wurde als 100%-Wert betrachtet. Die Ergebnisse sind in Tabelle 5 zusammengestellt.

For a further series, the system named is Stamm HK4 (DSM 2938). Briefly: Growth of strain HK4 on butyrobetaine esters or butyrobetaine as sole C source. To be noted: 30°C, 140 upm, 48 to 96 h. Type of series: cell-based, Agrobacterium/Rhizobium HK4 (DSM 2938). The procedure: Der Stamm HK4 (DSM 2938) wurde auf Minimalmedium Agarplatten unter Zusatz von 0,4% (w/v) Betain als einziger C-Quelle nach Einzelkolonie-Ausstrich bei 30°C für 48 bis 72 h inkubiert. Zur Anzucht wurden Einzelkolonien des Stammes von der Agarplatte in das Minimalmedium enthaltend Butyrobetain-methylester (BBMe) und Butyrobetain-ethylester (BBEt) als jeweils einziger C-Quelle überimpft und bei 30°C und 140 upm für 48 bis 96 h inkubiert. Es wurde ein Kontrollversuch durchgeführt, bei dem die Anzucht des Stammes HK4 (DSM 2938) unter den gleichen Bedingungen, jedoch unter Zusatz von Butyrobetain anstelle eines Butyrobetain-esters als einziger C-Quelle, erfolgte.

Series [3] is described as follows: Control: storage of butyrobetaine esters in the medium without cells (hydrolytic stability). Type of series: physicochemical. The following applies: same medium and conditions as Example 2 (30°C, 74 h) but without cells. As for the experimental part:
Die Stämme HK13 (DSM 2903) und HK1349 (DSM 3944) wurden jeweils in "Nutrient Yeast broth" Vorkulturmedium (10 mL), welchem L-Carnitin (0,05% (w/v)) als Induktor des L-Carnitinstoffwechsels zugesetzt wurde, überimpft und 2 Tage bei 30°C und 140 upm inkubiert. Die Vorkulturen (0,01 mL) wurde in das Minimalmedium (10 mL), welches zusätzlich 0,02% (w/v) Betain, 0,05% (v/v) Glycerin, 0,50% (w/v) L-Glutamat und entweder 0,75% (w/v) Butyrobetain-methylester (BBMe) oder 0,75% (w/v) Butyrobetain-ethylester (BBEt) enthielt, überimpft und bei 30°C und 140 upm inkubiert. Nach 40 h betrug die OD650 von beiden Kulturen ca. 9,0 und die Kulturen befanden sich in der stationären Phase. Nach weiteren 34 h wurden Proben entnommen. Die Zellen wurden zentrifugiert (11 000 upm, 5 min) und der Überstand wurde mittels HPLC auf den Gehalt an Butyrobetain, L-Carnitin und nicht umgesetzten Butyrobetain-ester untersucht. Die Ergebnisse sind in Tabelle 2 zusammengefasst. Als Kontrollversuch wurden Butyrobetain-methylester (BBMe) und Butyrobetain-ethylester (BBEt) jeweils im gleichen Medium und unter den gleichen Bedingungen, jedoch ohne Zusatz von Zellen, gelagert. […]

Setting [4] is: 1,0 % (w/v) as sole C source in minimal medium.

With Triton X-100, in series [1], the “Relative spezifische Hydrolase-Aktivität [%]” value is 64%.
As to `CCCC(=O)OCC` [Buttersäure-Ethylester], in series [2], the “Spezifische Hydrolase-Aktivität [U/mg Protein]” value was 0,028 U/mg Protein and the “Relative spezifische Hydrolase-Aktivität [%]” value is recorded as 72%.
For `C[N+](C)(C)CCCC(=O)[O-]` [Butyrobetain], the “Wachstum [OD650]” value in the series on Stamm HK4 (DSM 2938) (setting [4]) is reported as 7,0 OD650.
For `CCOC(C)=O` [Essigsäure-Ethylester], in series [2], the “Spezifische Hydrolase-Aktivität [U/mg Protein]” value was 0,039 U/mg Protein and the “Relative spezifische Hydrolase-Aktivität [%]” value is reported as 100%.
Turning to `COC(=O)CCC[N+](C)(C)C` [BBMe, Butyrobetain-methylester], in the series on Stamm HK4 (DSM 2938) (setting [4]), the “Wachstum [OD650]” value is 0,76 OD650. Besides, in series [3], the “Hydrolyse der Butyrobetain-ester zu Butyrobetain” value was “keine Hydrolyse”.
For `CCCC(=O)OC` [Buttersäure-Methylester], in series [2], the “Spezifische Hydrolase-Aktivität [U/mg Protein]” value is 0,038 U/mg Protein and the “Relative spezifische Hydrolase-Aktivität [%]” value amounted to 97%.
On to `CCCCCCCC/C=C\CCCCCCCC(=O)OCCOCC(OCCO)C1OCC(OCCO)C1OCCO` (stereo not drawn) [Tween 80], for which the “Relative spezifische Hydrolase-Aktivität [%]” value in series [1] came out at 80%.
As for `CCOC(=O)CCC[N+](C)(C)C` [BBEt, Butyrobetain-ethylester], the results for the “Wachstum [OD650]” value in the series with Stamm HK4 (DSM 2938) (0,2 % (w/v) as sole C source in minimal medium) and with Stamm HK4 (DSM 2938) (setting [4]) were 0,23 OD650 and 0,76 OD650, respectively. Moreover, the “Hydrolyse der Butyrobetain-ester zu Butyrobetain” value in series [3] is listed as “keine Hydrolyse”.
Take `CCCCCCCCCCCCOS(=O)(=O)O` [SDS]: the “Relative spezifische Hydrolase-Aktivität [%]” value in series [1] is 26%.
